In assay [1] the test system is p21 induction in HCT 116 cells. In words: p21 induction in cells (In-Cell Western, p21/GAPDH ratio). The note with it: 24 h compound incubation, read-out: p21_EC50. The assay is classed as cell-based. The gist of the method: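 HCT 116 cells treated 24 h at 37° C with 11-point, 2-fold dilutions typically from 10 μM, in duplicate. Fixed cells co-stained for p21 (800 nm) and GAPDH (700 nm) by In-Cell Western. p21/GAPDH ratio normalised between DMSO and reference WRN inhibitor controls, and EC50 obtained by nonlinear regression.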

The target in assay [2] is human Werner helicase (WRN, amino acids 517-1235 with L1074F point mutation) (Homo sapiens (Human), UniProt Q14191, L1074F). Nature of the assay: WRN (BV08) ADP-Glo assay. The assay is classed as biochemical. As to conditions: human WRN (aa 517-1235, L1074F), read-out: ADP-Glo_hWRN_IC50. The gist of the method: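 Untagged WRN 517-1235 (L1074F), Sf9/baculovirus-expressed, 0.15 nM, preincubated 15 min with compound, then 5 μM ATP and 0.1 nM annealed DNA duplex added; 60 min at 25 °C in Bicine pH 7.5, 1 mM MgCl2, 1% DMSO. ADP-Glo luminescence; % inhibition vs DMSO and 20 μM NSC-617145 controls, four-parameter IC50 fit.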
human Werner helicase (WRN, amino acids 517-1235 with L1074F point mutation), sequence (Q14191 other isoform, or with tags, fused parts or gaps L1074F (already in the parent)): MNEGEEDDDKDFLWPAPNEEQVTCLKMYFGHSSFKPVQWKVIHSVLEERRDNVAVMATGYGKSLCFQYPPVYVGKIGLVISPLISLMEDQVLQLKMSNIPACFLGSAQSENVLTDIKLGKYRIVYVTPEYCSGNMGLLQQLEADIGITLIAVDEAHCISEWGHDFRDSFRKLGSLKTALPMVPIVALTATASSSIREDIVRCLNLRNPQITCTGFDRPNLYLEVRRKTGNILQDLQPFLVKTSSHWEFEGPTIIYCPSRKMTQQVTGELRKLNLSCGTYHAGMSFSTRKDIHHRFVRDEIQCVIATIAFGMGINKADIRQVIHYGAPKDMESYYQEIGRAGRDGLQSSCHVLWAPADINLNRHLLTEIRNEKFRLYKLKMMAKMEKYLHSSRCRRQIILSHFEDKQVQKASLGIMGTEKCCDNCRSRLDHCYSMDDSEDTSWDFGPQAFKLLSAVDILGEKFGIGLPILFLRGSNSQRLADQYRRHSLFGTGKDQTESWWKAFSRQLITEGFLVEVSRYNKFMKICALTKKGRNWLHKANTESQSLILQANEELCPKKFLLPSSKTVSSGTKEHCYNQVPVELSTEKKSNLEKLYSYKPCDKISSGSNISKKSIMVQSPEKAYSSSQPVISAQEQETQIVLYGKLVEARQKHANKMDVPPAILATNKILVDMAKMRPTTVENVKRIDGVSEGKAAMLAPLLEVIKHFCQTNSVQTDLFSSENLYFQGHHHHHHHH

The structures appear in SMILES notation. Where two headings read alike, the source gives them in different places.

Take `CCc1c(N2CCN(C(=O)c3ncnc(C)c3O)[C@H]3CC[C@@H]32)c(=O)c2nn(-c3cccc(C)n3)nc2n1CC(=O)NC12CC(C(C)C)(C1)C2` [Compound I-179, 2-{5-ethyl-6-[(1S,6S)-5-(5-hydroxy-6-methylpyrimidine-4-carbonyl)-2,5-diazabicyclo[4.2.0]octan-2-yl]-2-(6-methylpyridin-2-yl)-7-oxo-2H,4H,7H-[1,2,3]triazolo[4,5-b]pyridin-4-yl}-N-[3-(propan-2-yl)bicyclo[1.1.1]pentan-1-yl]acetamide]: the EC50 in assay [1] (Homo sapiens) is at most 500 nM. Further, the IC50 in assay [2] fell in the range of 5 to 50 nM.

For the compound `CCc1c(N2CCN(C(=O)c3ncnc(C)c3O)[C@H]3CC[C@@H]32)c(=O)c2nn(C3=CCO[C@H](C)C3)nc2n1CC(=O)NC12CC(C3CC3)(C1)C2` (single isomer, unassigned) [Compound I-180], the EC50 in assay [1] (Homo sapiens) was at most 500 nM. In addition, the IC50 in assay [2] was in the range of 5 to 50 nM.

Take `CCc1c(N2CCN(C(=O)c3ncnc(C)c3O)[C@H]3CC[C@@H]32)c(=O)c2nn(-c3ccnc(OC)c3)nc2n1CC(=O)NC12CC(C(C)(F)F)(C1)C2` [Compound I-61, N-[3-(1,1-difluoroethyl)bicyclo[1.1.1]pentan-1-yl]-2-{5-ethyl-6-[(1S,6S)-5-(5-hydroxy-6-methylpyrimidine-4-carbonyl)-2,5-diazabicyclo[4.2.0]octan-2-yl]-2-(2-methoxypyridin-4-yl)-7-oxo-2H,4H,7H-[1,2,3]triazolo[4,5-b]pyridin-4-yl}acetamide]: in assay [1], the EC50 was at most 500 nM. Besides, the IC50 in assay [2] lay within 5 to 50 nM.

For the compound `CCc1c(N2CCN(C(=O)c3ncnc(C)c3O)[C@H]3CC[C@@H]32)c(=O)c2nn(C3=CCOCC3)nc2n1CC(=O)NC12CC(C(C)C)(C1)C2` [Compound I-18, 2-(2-(3,6-dihydro-2H-pyran-4-yl)-5-ethyl-6-((1S,6S)-5-(5-hydroxy-6-methylpyrimidine-4-carbonyl)-2,5-diazabicyclo[4.2.0]octan-2-yl)-7-oxo-2,7-dihydro-4H-[1,2,3]triazolo[4,5-b]pyridin-4-yl)-N-(3-isopropylbicyclo[1.1.1]pentan-1-yl)acetamide], the EC50 in assay [1] (Homo sapiens) was at most 500 nM. Also, in assay [2], the IC50 is 5 to 50 nM.

Turning to `CCc1c(N2CCN(C(=O)c3c(OC)ncc(C)c3O)CC2)c(=O)c2nn(-c3ccnc(OC)c3)nc2n1CC(=O)NC12CC(N3CCCC3)(C1)C2` [Compound I-124, 2-{5-ethyl-6-[4-(4-hydroxy-2-methoxy-5-methylpyridine-3-carbonyl)piperazin-1-yl]-2-(2-methoxypyridin-4-yl)-7-oxo-2H,4H,7H-[1,2,3]triazolo[4,5-b]pyridin-4-yl}-N-[3-(pyrrolidin-1-yl)bicyclo[1.1.1]pentan-1-yl]acetamide], the EC50 in assay [1] (Homo sapiens) is over 5000 nM. In addition, the IC50 in assay [2] is over 500 nM.

As for `CCc1c(N2CCN(C(=O)c3ncnc(C)c3O)CC2)c(=O)c2nn(-c3ccncc3)nc2n1CC(=O)NC12CC(C(C)C)(C1)C2` [Compound I-134, 2-{5-ethyl-6-[4-(5-hydroxy-6-methylpyrimidine-4-carbonyl)piperazin-1-yl]-7-oxo-2-(pyridin-4-yl)-2H,4H,7H-[1,2,3]triazolo[4,5-b]pyridin-4-yl}-N-[3-(propan-2-yl)bicyclo[1.1.1]pentan-1-yl]acetamide], the EC50 in assay [1] (Homo sapiens) lay within 500 to 2000 nM. Also, in assay [2], the IC50 was in the range of 5 to 50 nM.

On to `CCc1c(N2CCN(C(=O)c3ncnc(C)c3O)CC2)c(=O)c2nn(-c3ccncc3)nc2n1CC(=O)NC12CC(CC)(C1)C2` [Compound I-138, 2-{5-ethyl-6-[4-(5-hydroxy-6-methylpyrimidine-4-carbonyl)piperazin-1-yl]-7-oxo-2-(pyridin-4-yl)-2H,4H,7H-[1,2,3]triazolo[4,5-b]pyridin-4-yl}-N-{3-ethylbicyclo[1.1.1]pentan-1-yl}acetamide], for which, in assay [1] (Homo sapiens), the EC50 was in the range of 500 to 2000 nM. Further, in assay [2], the IC50 is 5 to 50 nM.

`CCc1c(N2CCN(C(=O)c3ncnc(C)c3O)CC2)c(=O)c2nn(-c3ccnc(OC)c3)nc2n1CC(=O)Nc1ccc(C(F)(F)F)cc1Cl` [Compound I-149, N-[2-chloro-4-(trifluoromethyl)phenyl]-2-{5-ethyl-6-[4-(5-hydroxy-6-methylpyrimidine-4-carbonyl)piperazin-1-yl]-2-(2-methoxypyridin-4-yl)-7-oxo-2H,4H,7H-[1,2,3]triazolo[4,5-b]pyridin-4-yl}acetamide]: the EC50 in assay [1] (Homo sapiens) is at most 500 nM. In addition, the IC50 in assay [2] was at most 5 nM.

Take `CCc1c(N2CCN(C(=O)c3ncnc(C)c3O)CC2)c(=O)c2nn(-c3ccn(C4CC4)n3)nc2n1CC(=O)Nc1ccc(C(F)(F)F)cc1Cl` [Compound I-8, N-(2-chloro-4-(trifluoromethyl)phenyl)-2-(2-(1-cyclopropyl-1H-pyrazol-3-yl)-5-ethyl-6-(4-(5-hydroxy-6-methylpyrimidine-4-carbonyl)piperazin-1-yl)-7-oxo-2,7-dihydro-4H-[1,2,3]triazolo[4,5-b]pyridin-4-yl)acetamide]: in assay [1] (Homo sapiens), the EC50 was at most 500 nM. For the same compound, the IC50 in assay [2] is at most 5 nM.

In the case of `CCc1c(N2CCN(C(=O)c3ncnc(C)c3O)[C@H]3CC[C@@H]32)c(=O)c2nn(C3CC3(F)F)nc2n1CC(=O)Nc1ccc(C(F)(F)F)cc1Cl` (stereo partly drawn) [Compound I-189, N-[2-chloro-4-(trifluoromethyl)phenyl]-2-[2-(2,2-difluorocyclopropyl)-5-ethyl-6-[(1S,6S)-5-(5-hydroxy-6-methylpyrimidine-4-carbonyl)-2,5-diazabicyclo[4.2.0]octan-2-yl]-7-oxo-2H,4H,7H-[1,2,3]triazolo[4,5-b]pyridin-4-yl]acetamide], the EC50 in assay [1] (Homo sapiens) is at most 500 nM. Besides, the IC50 in assay [2] was at most 5 nM.

As to `CCc1c(N2CCN(C(=O)c3c(O)ccc4ncoc34)CC2)c(=O)c2nn(C3CC3)nc2n1CC(=O)Nc1ccc(C(F)(F)F)cc1Cl` [Compound I-133, N-[2-chloro-4-(trifluoromethyl)phenyl]-2-{2-cyclopropyl-5-ethyl-6-[4-(6-hydroxy-1,3-benzoxazole-7-carbonyl)piperazin-1-yl]-7-oxo-2H,4H,7H-[1,2,3]triazolo[4,5-b]pyridin-4-yl}acetamide], in assay [1] (Homo sapiens), the EC50 is at most 500 nM. Moreover, the IC50 in assay [2] fell in the range of 5 to 50 nM.

Regarding `CCc1c(N2CCN(C(=O)c3ncnc(C)c3O)[C@H]3CC[C@@H]32)c(=O)c2nn(-c3cc(C)n(C)n3)nc2n1CC(=O)NC12CC(C3CC3)(C1)C2` [Compound I-34, N-{3-cyclopropylbicyclo[1.1.1]pentan-1-yl}-2-[2-(1,5-dimethyl-1H-pyrazol-3-yl)-5-ethyl-6-[(1S,6S)-5-(5-hydroxy-6-methylpyrimidine-4-carbonyl)-2,5-diazabicyclo[4.2.0]octan-2-yl]-7-oxo-2H,4H,7H-[1,2,3]triazolo[4,5-b]pyridin-4-yl]acetamide], in assay [1] (Homo sapiens), the EC50 is at most 500 nM. In addition, in assay [2], the IC50 was in the range of 5 to 50 nM.

As to `CCc1c(N2CCN(C(=O)c3c(OC)ncc(C(F)F)c3O)CC2)c(=O)c2nn(-c3ccnc(OC)c3)nc2n1CC(=O)NC12CC(C(C)C)(C1)C2` [Compound I-51, 2-(6-{4-[5-(difluoromethyl)-4-hydroxy-2-methoxypyridine-3-carbonyl]piperazin-1-yl}-5-ethyl-2-(2-methoxypyridin-4-yl)-7-oxo-2H,4H,7H-[1,2,3]triazolo[4,5-b]pyridin-4-yl)-N-[3-(propan-2-yl)bicyclo[1.1.1]pentan-1-yl]acetamide], the EC50 in assay [1] (Homo sapiens) was 2000 to 5000 nM. Also, the IC50 in assay [2] is 5 to 50 nM.
